Test results as given in patent publication US20130225641A1, “ANTICANCER COMPOUNDS AND PREPARATION METHODS THEREOF” (priority 2010, published 2013).

What was measured:
LnCAP = assay: MTT cytotoxicity, LnCAP; assay type: cell-based; conditions: Homo sapiens, Prostatic, 72 hrs, read-out: LC50 (the source's name)
Method: (§1) The cytotoxicity of ZTP and ZTQ was analyzed by using human tumor cell lines. Human tumor cell lines were purchased from ATCC and NCI, and cultured in DMEM medium containing 10% FBS at 37° C. in 5% CO2 in an incubator. The cells grown to confluence were used for cytotoxicity analysis. The cells were digested with trypsin, washed with the culture medium, and then counted. 33 tumor cell lines were cultured. The cells were seeded at a density of 3000-6000 cells/well in a 96-well plate and incubated for 16-24 hrs. Then, various concentrations of ZTP or ZTQ dissolved in DMSO were added, and cultured for 72 hrs. The drug-treated cells and control cells were analyzed by MTT.

CCL-247 = assay: MTT cytotoxicity, CCL-247; assay type: cell-based; conditions: Homo sapiens, CCL-247, Colonic, 72 hrs, read-out: LC50 (the source's name)
Method: as §1

NCI-H23 = assay: MTT cytotoxicity, NCI-H23; assay type: cell-based; conditions: Homo sapiens, NCI-H23, Lung, 72 hrs, read-out: LC50 (the source's name)
Method: as §1

MDA-MB-231 = assay: MTT cytotoxicity, MDA-MB-231; assay type: cell-based; conditions: Homo sapiens, MDA-MB-231, Breast, 72 hrs, read-out: LC50 (the source's name)
Method: as §1

U-251 = assay: MTT cytotoxicity, U-251; assay type: cell-based; conditions: Homo sapiens, U-251, Glioblastoma, 72 hrs, read-out: LC50 (the source's name)
Method: as §1

[1] = MTT cytotoxicity, MCF-10a normal mammary epithelial cell; assay type: cell-based, human; conditions: human, MCF-10a normal mammary epithelial cells; MCF-10a, Normal mammary epithelial cell; 72 hrs, MTT; read-out: LC50
Method: [Worded in the source for another cell line; this cell line is reported under the same test.] as §1

MCF-10a = assay: as above; assay type: cell-based, human; conditions: cells still grow well at a concentration up to 30 μm
Method: [Worded in the source for another cell line; this cell line is reported under the same test.] as §1

CNE-2Z = assay: MTT cytotoxicity, CNE-2Z; assay type: cell-based; conditions: Homo sapiens, CNE2Z, Nasopharyngeal, 72 hrs, read-out: LC50 (the source's name)
Method: as §1

HepG3B = assay: MTT cytotoxicity, HepG3B; assay type: cell-based; conditions: Homo sapiens, Liver, 72 hrs, read-out: LC50 (the source's name)
Method: as §1

[2] = MTT cytotoxicity, HUMEC human microvascular endothelial cell; assay type: cell-based; conditions: HUMEC human microvascular endothelial cells, read-out: LC50
Method: [Worded in the source for another cell line; this cell line is reported under the same test.] as §1

[3] = MTT cytotoxicity, MEF normal mouse fibroblast; assay type: cell-based; conditions: MEF normal mouse fibroblasts; MEF, Normal mouse fibroblast; 72 hrs, MTT; read-out: LC50
Method: [Worded in the source for another organism; this organism is reported under the same test.] as §1

MEF = assay: MTT cytotoxicity, MEF normal mouse fibroblast; assay type: cell-based; conditions: cells still grow well at a concentration up to 30 μm
Method: [Worded in the source for another organism; this organism is reported under the same test.] as §1

[4] = Pharmacokinetic study in mice; assay type: in vivo; conditions: both sexes, mouse, po, BALB/c mice, single dose of 100 mg/kg orally by gavage, plasma, Mean +/− SD; for half-life: read-out: T½ (converted)
Method: BALB/c mice (2 males and 2 females) of 8 weeks old were administered with the compounds ZTP and ZTQ (formulated with 15% Captsol or a carrier) at a single dose of 100 mg/kg. 0.5, 1, 3, 6, 12, 24, 48, and 72 hrs after administration, blood was taken from ophthalmic vein and plasma was prepared therefrom, to determine the plasma concentrations of ZTP and ZTQ. The pharmacokinetic parameters of the compounds ZTP and ZTQ given orally by gavage in the 4 mice are summarized as below (Tables 2 and 3): […]

[5] = system: human liver cancer cells (HepG3B); assay: Transplantation model of human liver cancer (HepG3B) in nude mice; assay type: in vivo, nude mice (nu/nu); conditions: HepG3B subcutaneous in nude mice; oral daily 5 days/week, 3 weeks; ZTP 30 mg/kg, ZTQ 60 mg/kg; lower = stronger
Method: (§2) T-cell deficient nude mice (nu/nu) of 6 weeks old were purchased from Charles River Laboratory, and housed and treated in a sterile environment following Institutional Animal Care & Use Committee Program. 48 mice were respectively subcutaneously inoculated on ribbed belly with 5×10^6 human liver cancer cells (HepG3B), human lung caner cells (NCI-H23), and human colon cancer cells (HCT-116) suspended in 0.2 ml HBSS/matrigel (50:50, V/V). When the tumor grew to have an average diameter of 7-8 mm and a volume of about 100-200 mm^3, 24 mice were picked up, and assigned to treatment groups (16 animals/2 groups), and a control group (8 animals). The 2 treatment groups were administered with the compounds ZTP and ZTQ dissolved in 15% Captsol respectively at a dose of 30 mg/kg and 60 mg/kg, and the control group only received an excipient (15% Captsol).
(§3) The same number of mice of each type was assigned to the control group and the treatment groups with the compounds ZTP and ZTQ respectively.
(§4) The dose schedule of the test compounds in the tumor transplanted nude mice was as follows: the compounds ZTP and ZTQ dissolved in 15% Captsol were daily orally administered as a 200 μl solution containing 0.75 mg of ZTP and 1.5 mg of ZTQ for 5 days/week over 3 consecutive weeks, followed by one-week break; and the control group was only administered with 200 μl of the placebo (15% Captsol) for 3 weeks, followed by 1 week of break. The two groups of animals were housed separately, and allowed to free access to food.
(§5) Evaluation of antitumor effect: the tumor size was measured every 3 or 4 days. The tumor volume was calculated using the equation below: […], in which a denotes the width (the shorter diameter), and b denotes the length (the longer diameter). Relative tumor volume (RTV) of each tumor refers to the ratio of the volume at a specified time to that at the beginning of the treatment. The average RTV for each treatment group was calculated. The antitumor activity was determined by calculating the tumor growth inhibition using a formula below. […]

[6] = system: human colon cancer cells (HCT-116); assay: Transplantation model of human colon cancer (HCT-116) in nude mice; assay type: in vivo, nude mice (nu/nu); conditions: HCT-116 subcutaneous in nude mice; oral daily 5 days/week, 3 weeks; ZTP 30 mg/kg, ZTQ 60 mg/kg; lower = stronger
Method: as §2, §3, §4, §5

[7] = system: human lung cancer cells (NCI-H23); assay: Transplantation model of human lung cancer (NCI-H23) in nude mice; assay type: in vivo, nude mice (nu/nu); conditions: NCI-H23 subcutaneous in nude mice; oral daily 5 days/week, 3 weeks; ZTP 30 mg/kg, ZTQ 60 mg/kg; lower = stronger
Method: as §2, §3, §4, §5

| Compound | CC50 (LnCAP) | CC50 (CCL-247) | CC50 (NCI-H23) | CC50 (MDA-MB-231) | CC50 (U-251) | CC50 at 72 h [1] | susceptibility of normal human mammary epithelial cells (MCF-10a) (MCF-10a) | CC50 (CNE-2Z) | CC50 (HepG3B) | CC50 at 72 h [2] | CC50 at 72 h [3] | susceptibility of normal mouse fibroblasts (MEFs) (MEF) | Cmax [4] | Tmax [4] | half-life [4] | TGI (T/C×100) [5] | TGI (T/C×100) [6] | TGI (T/C×100) [7] |
| --- | --- | --- | --- | --- | --- | --- | --- | --- | --- | --- | --- | --- | --- | --- | --- | --- | --- | --- |
| CNC(=O)c1cc(Oc2ccc(NC(=S)Nc3ccc(Cl)c(C(F)(F)F)c3)cc2)ccn1 [ZTP, N-[4-chloro-3-(trifluoromethyl)phenyl]-[4-(N-methyl-formamide)(4-pyridyloxy)phenyl]-thiourea] | 1050 nM | 2410 nM | 890 nM | 1190 nM | 3670 nM | > 30000 nM | insusceptible | 1890 nM | 1710 nM | 31 nM | > 30000 nM | insusceptible | 51 µM | 6.4 h | 4.1 h | 13% | 29.2% | 10% |
| CNC(=O)c1cc(Sc2ccc(NC(=S)Nc3ccc(Cl)c(C(F)(F)F)c3)cc2)ccn1 [ZTQ, N-[4-chloro-3-(trifluoromethyl)phenyl]-[4-(N-methyl-formamide)(4-pyridylthio)phenyl]-thiourea] | 820 nM | 1700 nM | 710 nM | 1030 nM | 2500 nM | > 30000 nM | insusceptible | 1310 nM | 1230 nM | 19 nM | > 30000 nM | insusceptible | 52 µM | 6.6 h | 4.2 h | 1.75% | 6.45% | 9.21% |
